Measured values taken from ChEMBL document CHEMBL1909046, “DrugMatrix in vitro pharmacology data”.

Key:
Glycine receptor = Glycine receptor (Rattus norvegicus, UniProt P22771+P24524+P07727+P20781); assay type: cell membranes, Wistar, Spinal cord, Membrane; also: in other assays of this panel Not Active means under 50% inhibition at 10 µM
Vasopressin V1a receptor = Vasopressin V1a receptor (Homo sapiens, UniProt P37288); assay type: cell membranes, Membrane; settings: hek293; also: in other assays of this panel Not Active means under 50% inhibition at 10 µM
Sequence of Vasopressin V1a receptor (P37288 whole entry): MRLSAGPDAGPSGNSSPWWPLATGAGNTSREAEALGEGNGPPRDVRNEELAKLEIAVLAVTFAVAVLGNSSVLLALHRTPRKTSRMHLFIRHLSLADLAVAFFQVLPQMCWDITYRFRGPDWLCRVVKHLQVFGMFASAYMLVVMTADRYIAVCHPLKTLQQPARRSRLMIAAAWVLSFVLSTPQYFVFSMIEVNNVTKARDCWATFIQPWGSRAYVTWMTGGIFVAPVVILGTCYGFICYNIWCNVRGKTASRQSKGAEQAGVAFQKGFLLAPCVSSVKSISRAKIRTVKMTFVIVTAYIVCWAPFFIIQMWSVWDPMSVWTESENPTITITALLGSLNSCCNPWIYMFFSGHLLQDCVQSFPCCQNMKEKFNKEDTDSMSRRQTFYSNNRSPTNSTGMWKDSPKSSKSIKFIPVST

[1] = DRUGMATRIX: GABAA, Chloride Channel, TBOB radioligand binding (ligand: [3H] TBOB); assay type: cell membranes, Rattus norvegicus, Wistar, Cerebral cortex, Membrane; settings: Not Active = under 50% inhibition at 10 µM
Interstitial collagenase = target: T1, Interstitial collagenase (Homo sapiens, UniProt P03956); assay: biochemical; assay type: tissue-based, Rheumatoid synovial fibroblasts;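 also: MMP-1 enzyme inhibition assay using a peptide substrate; in other assays of this panel Not Active means under 50% inhibition at 10 µM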
T1 sequence (P03956 whole entry): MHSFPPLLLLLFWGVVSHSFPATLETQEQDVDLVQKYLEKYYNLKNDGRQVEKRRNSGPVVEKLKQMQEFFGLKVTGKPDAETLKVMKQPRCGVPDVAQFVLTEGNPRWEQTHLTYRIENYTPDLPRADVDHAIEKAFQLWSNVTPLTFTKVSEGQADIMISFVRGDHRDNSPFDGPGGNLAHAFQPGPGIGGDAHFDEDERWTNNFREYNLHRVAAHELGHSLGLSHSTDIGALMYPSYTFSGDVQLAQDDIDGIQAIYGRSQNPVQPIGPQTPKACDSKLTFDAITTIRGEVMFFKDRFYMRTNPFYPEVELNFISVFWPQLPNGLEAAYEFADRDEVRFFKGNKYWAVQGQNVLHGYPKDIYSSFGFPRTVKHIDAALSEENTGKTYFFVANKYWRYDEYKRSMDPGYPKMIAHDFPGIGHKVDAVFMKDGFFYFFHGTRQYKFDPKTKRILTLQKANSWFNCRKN

[2] = target: Platelet-activating factor receptor (Homo sapiens, UniProt P25105); assay type: tissue-based; also: in other assays of this panel Not Active means under 50% inhibition at 10 µM
Sequence of Platelet-activating factor receptor (P25105 whole entry): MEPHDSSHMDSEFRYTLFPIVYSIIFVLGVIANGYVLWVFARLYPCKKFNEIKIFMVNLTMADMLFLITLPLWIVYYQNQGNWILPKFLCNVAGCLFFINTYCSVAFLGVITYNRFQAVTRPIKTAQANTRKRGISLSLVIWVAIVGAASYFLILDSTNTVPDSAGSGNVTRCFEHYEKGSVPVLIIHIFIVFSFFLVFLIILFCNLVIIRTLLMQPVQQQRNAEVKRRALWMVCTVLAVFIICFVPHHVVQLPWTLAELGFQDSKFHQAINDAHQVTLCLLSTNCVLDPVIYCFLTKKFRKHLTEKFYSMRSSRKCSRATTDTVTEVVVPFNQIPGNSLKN

[3] = target: 5-hydroxytryptamine receptor 2B (Homo sapiens, UniProt P41595); assay type: cell membranes, CHO-K1, Membrane; settings: cho-k1; also: in other assays of this panel Not Active means under 50% inhibition at 10 µM
Sequence of 5-hydroxytryptamine receptor 2B (P41595 whole entry): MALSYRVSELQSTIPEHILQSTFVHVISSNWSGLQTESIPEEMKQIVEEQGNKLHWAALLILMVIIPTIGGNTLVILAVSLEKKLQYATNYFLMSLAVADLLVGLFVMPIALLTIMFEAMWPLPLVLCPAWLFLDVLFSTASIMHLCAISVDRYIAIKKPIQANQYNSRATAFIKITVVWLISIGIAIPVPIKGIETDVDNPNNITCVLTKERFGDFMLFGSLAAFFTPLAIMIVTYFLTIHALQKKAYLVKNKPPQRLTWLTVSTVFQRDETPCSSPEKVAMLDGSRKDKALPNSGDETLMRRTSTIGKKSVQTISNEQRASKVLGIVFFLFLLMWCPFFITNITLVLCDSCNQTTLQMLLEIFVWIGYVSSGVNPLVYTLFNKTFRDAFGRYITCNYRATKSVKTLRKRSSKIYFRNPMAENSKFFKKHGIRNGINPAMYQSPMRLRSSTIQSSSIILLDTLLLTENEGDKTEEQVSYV

[4] = DRUGMATRIX: Glutamate, NMDA, Phencyclidine radioligand binding (ligand: [3H] TCP); assay type: cell membranes, Rattus norvegicus, Wistar, Cerebral cortex, Membrane; settings: Not Active = under 50% inhibition at 10 µM

c1ccc2c(c1)c1cccc3ccc4cccc2c4c31 [BENZO[E]PYRENE]
Not Active: IC50 (Glycine receptor) | IC50 (Vasopressin V1a receptor) | IC50 [1] | Ki [1] | IC50 (Interstitial collagenase) | IC50 [2] | IC50 [3] | IC50 [4] | Ki [4]

CNCCc1ccccn1 [BETAHISTINE]
Not Active: IC50 (Glycine receptor) | IC50 (Vasopressin V1a receptor) | IC50 [1] | Ki [1] | IC50 (Interstitial collagenase) | IC50 [2] | IC50 [3] | IC50 [4] | Ki [4]

CC(C)C(Br)C(=O)NC(N)=O (stereo not drawn) [BROMISOVALUM]
Not Active: IC50 (Glycine receptor) | IC50 (Vasopressin V1a receptor) | IC50 [1] | Ki [1] | IC50 (Interstitial collagenase) | IC50 [2] | IC50 [3] | IC50 [4] | Ki [4]

CCCC1O[C@@H]2C[C@H]3[C@@H]4CCC5=CC(=O)C=C[C@]5(C)[C@H]4[C@@H](O)C[C@]3(C)[C@]2(C(=O)CO)O1 (stereo partly drawn) [BUDESONIDE]
Not Active: IC50 (Glycine receptor) | IC50 (Vasopressin V1a receptor) | IC50 [1] | Ki [1] | IC50 (Interstitial collagenase) | IC50 [2] | IC50 [3] | IC50 [4] | Ki [4]

CC(NC(C)(C)C)C(=O)c1cccc(Cl)c1 (stereo not drawn) [BUPROPION]
Not Active: IC50 (Glycine receptor) | IC50 (Vasopressin V1a receptor) | IC50 [1] | Ki [1] | IC50 (Interstitial collagenase) | IC50 [2] | IC50 [3] | IC50 [4] | Ki [4]

CN(Cc1ccc(C(C)(C)C)cc1)Cc1cccc2ccccc12 [BUTENAFINE]
Not Active: IC50 (Glycine receptor) | IC50 (Vasopressin V1a receptor) | IC50 [1] | Ki [1] | IC50 (Interstitial collagenase) | IC50 [2] | IC50 [3] | IC50 [4] | Ki [4]

C[C@H](CS)C(=O)N1CCC[C@H]1C(=O)O [CAPTOPRIL]
Not Active: IC50 (Glycine receptor) | IC50 (Vasopressin V1a receptor) | IC50 [1] | Ki [1] | IC50 (Interstitial collagenase) | IC50 [2] | IC50 [3] | IC50 [4] | Ki [4]

Cc1ccc(-c2cc(C(F)(F)F)nn2-c2ccc(S(N)(=O)=O)cc2)cc1 [CELECOXIB]
Not Active: IC50 (Glycine receptor) | IC50 (Vasopressin V1a receptor) | IC50 [1] | Ki [1] | IC50 (Interstitial collagenase) | IC50 [2] | IC50 [3] | IC50 [4] | Ki [4]

O=C(O)CCCc1ccc(N(CCCl)CCCl)cc1 [CHLORAMBUCIL]
Not Active: IC50 (Glycine receptor) | IC50 (Vasopressin V1a receptor) | IC50 [1] | Ki [1] | IC50 (Interstitial collagenase) | IC50 [2] | IC50 [3] | IC50 [4] | Ki [4]

C[C@H](CCC(=O)O)[C@H]1CC[C@H]2[C@@H]3[C@H](O)C[C@@H]4C[C@H](O)CC[C@]4(C)[C@H]3C[C@H](O)[C@]12C [CHOLIC ACID]
Not Active: IC50 (Glycine receptor) | IC50 (Vasopressin V1a receptor) | IC50 [1] | Ki [1] | IC50 (Interstitial collagenase) | IC50 [2] | IC50 [3] | IC50 [4] | Ki [4]

Cc1cc(C2CCCCC2)n(O)c(=O)c1 [CICLOPIROX]
Not Active: IC50 (Glycine receptor) | IC50 (Vasopressin V1a receptor) | IC50 [1] | Ki [1] | IC50 (Interstitial collagenase) | IC50 [2] | IC50 [3] | IC50 [4] | Ki [4]

CC1=C2C(=CO[C@H](C)[C@H]2C)C(O)=C(C(=O)O)C1=O [CITRININ]
Not Active: IC50 (Glycine receptor) | IC50 (Vasopressin V1a receptor) | IC50 [1] | Ki [1] | IC50 (Interstitial collagenase) | IC50 [2] | IC50 [3] | IC50 [4] | Ki [4]
